Experimental data: US8207159B2, “Use of galanthamine for the treatment of pathological manifestations of the central nervous system based on intoxications with psychotropic substances” (priority 2001, dated 2012)

Legend:
[1] = test system: chronically dependent alcoholics; test: Clinical studies on chronically dependent alcoholics, cognitive performance; format: in vivo, human
Source text: (§1) A further advantage in this connexion is in particular that better control over the addictive behaviour is made possible, so that the risk of relapse is reduced.

rats = test: Animal experiments: administration of galanthamine to rats, cognitive abilities; format: in vivo, rat; conditions: restoration did not occur, or occurred only considerably later, in untreated control animals
Source text: as §1

COc1ccc2c3c1O[C@H]1C[C@@H](O)C=C[C@@]31CCN(C)C2 [galanthamine, 4a,5,9,10,11,12-hexahydro-3-methoxy-11-methyl-6-H-benzofuro-(3a,3,2-ef)-(2)-benzazepin-6-ol]
cognitive performance of the subjects [1]: general improvement in the cognitive performance
recovery of cognitive abilities (rats): recovery of cognitive abilities
